Experimental data reported in patent US5342612A, “Compositions for the treatment of mammalian diseases” (priority 1991, dated 1994).
Like-named read-outs stand apart in the source and are kept apart here.

Tests used:
[1] = in vitro; type: cell-based, murine; conditions: mouse, p388.d1 cells, Relative Toxicity at 6 Hours
Protocol: (§1) Cell Lines: A20: B-cell tumor cell line 9C127: T-cell hybridoma cell line LB/62287: B-cell lymphoma cell line P388.D1: Macrophage tumor cell line
(§2) Cell lines (1×10^5 /well; >85% viability) are cultured in 24 well flat bottom plates in RPMI® medium (Gibco Laboratories, Grand Island, N.Y.) supplemented with 10% fetal calf serum, streptomycin (100 μg/mL) and penicillin (100 U/mL). Cultures are incubated (37° C., 10% CO2) with the following concentrations of vehicles:
(§3) c) 1.0%, 0.1% or 0.01% Triacetin or IMWITOR®
(§4) After a 72 hour or 6 hour incubation period, cells are harvested and counted by the Coulter Counter (Northwell Drive, England). Cell viability is determined using a Coulter Channelyzer.
(§5) The relative toxicity of the sample formulations to estimate the relative degree of toxicity for in vivo administration is carried out in vitro with the mammalian cell lines. Various concentrations of the vehicles are incubated for either 6 or 24 hours with the different mammalian cell lines. Immediate toxicity is evaluated at 6 hours by quantitating the number of dead cells in treated wells as compared to the untreated controls. Long term toxicity effects as well as effects which may inhibit cell growth are evaluated by measuring the relative degree of proliferation after an additional 48 hours incubation with ^3 H-thymidine.

[2] = Toxicity of formulations on mammalian cell lines (cell viability, Coulter); type: cell-based, murine
Protocol: as §1, §2, §3, §4, §5

[3] = tested on: A20 (B-cell tumor cell line); assay: as above; type: cell-based, murine
Protocol: as §1, §2, §3, §4, §5

[4] = tested on: mammary gland; conditions: bovine, in vivo
Protocol: Multiparous Holstein-Fresian dairy cattle cultured negative for infection and with individual quarter somatic cell counts less than 200,000 cells/mL are used. The lactating dairy cows receive a ration consisting of corn silage, alfalfa hay and concentrate which is formulated to provide recommended amounts of minerals and vitamins for a lactating dairy cow. Water is provided ad libitum.
The somatic cell count (SCC) of twelve normal glands are determined prior to treatment. Three groups of four quarters each receive an intramammary infusion of 10 mL to 60 mL of the respective vehicles identified in Example 1, 15% w/v poloxamer 407 NF (PLURONIC® F127), 50% w/v glycerol, 10% w/v triacetin (glyceryl triacetate) and the sPBS as a control. In vivo degree of irritation is measured by infusing a quarter of a mammary gland with the vehicle and measuring the SCC at 12, 36 and 60 hours after infusion. The data are expressed as the stimulation index which is calculated as the average experimental SCC divided by the control SCC.

[5] = tested on: S. aureus; assay: Potentiation of bacteriostatic activity of lysostaphin by vehicles (checkered analysis); type: cell-based, Staphylococcus aureus
Text: In order to identify the nontoxic formulations for mammalian use, toxicity is employed as a method to eliminate direct bactericidal effects on the S. aureus, as well as potential toxic effects on the target animal. Compounds are formulated with r-lysostaphin at concentrations below toxic effects and compared to the bacteriostatic activity of r-lysostaphin in a saline formulation. Some compounds potentiate r-lysostaphin bacteriostatic activity by as much as 300-1000 fold.
Several surfactants, detergents, oils, emollients and membrane solubilizers are chosen as representative of various classes of compounds which may affect protein activity. These vehicles are then evaluated for toxicity and potentiation of the bacteriostatic effects of r-lysostaphin on S. aureus according to the methods described in the foregoing examples. […] Secondly, the vehicles are subjected to the toxicity test on murine cells in vitro. Viable cells are evaluated by trypan blue exclusion and normalized to an untreated control. Thereafter, dairy cattle are infused through the teat canal with various concentrations of the vehicle to make a determination of the irritation potential after intramammary infusion as a measure of mammalian toxicity. Milk samples are collected after infusion of said vehicles and the somatic cell count is determined. The Stimulation Index equals the post-infusion SCC divided by the pre-infusion SCC. The vehicles showing minimal toxicity to S. aureus and mammalian cells in vitro and in vivo are subsequent candidates for evaluation in the in vivo potentiation trials.
Various vehicle combinations are tested in a standard checkered analysis which simultaneously varies the concentration of both parameters to examine the individual contribution of each. Vehicles are all compared to r-lysostaphin in a saline solution, i.e., the potentiation index. […] Glycerol and triacetin, while only potentiating the activity of r-lysostaphin 6-8 fold, is manifested by bactericidal effects (see above Table IV).

[6] = tested on: LB/62287 (B-cell lymphoma cell line); assay: Toxicity of formulations on mammalian cell lines (cell viability, Coulter); type: cell-based, murine
Protocol: as §1, §2, §3, §4, §5

[7] = tested on: Staphylococcus aureus mastitis (Newbould 305); assay: Efficacy of lysostaphin formulated in vehicles as intramammary infusion against Staphylococcus aureus mastitis; type: in vivo, bovine (dairy cows)
Text: This experiment examines the ability of various lysostaphin formulations to eliminate S. aureus infections in the bovine mammary gland and compares the formulations with the testing of lysostaphin in a peanut oil-gel matrix, similar to that used in the commercial product CEFA-LAK®, which is used to treat mastitis in lactating dairy cows.
Lysostaphin is formulated in three vehicles: 15% w/v poloxamer 407 NF, 50% w/v glycerol or 10% w/v triacetin. Lysostaphin is also formulated in a peanut oil-gel matrix. These formulations are infused into the bovine mammary gland and the ability of these combinations to exact a biological response, either by curing the infection or by clearing the mammary gland temporarily of S. aureus, are assessed.
Recombinant lysostaphin is suspended in 10.0 mL of peanut oil vehicle or dissolved in 60.0 mL of appropriate sterile vehicle (sPBS) at a concentration of 10.0 mg/mL or 1.67 mg/mL, respectively. Each of 15% poloxamer 407 NF (PLURONIC® ACID F127, a polyoxyethylene-polyoxypropylene derivative, BASF Corporation, Parsippany, N.J.); 50% glycerol (Sigma Chemical Co., St. Louis, Mo.); and 10% triacetin (glyceryl triacetate, Sigma Chemical Co., St. Louis, Mo.) are prepared in sterile phosphate buffered saline.
Staphylococcus aureus infections of the mammary gland provide an excellent model system for evaluating therapeutic efficacy of a variety of pharmaceutical and biological agents for many infectious diseases of mammals. Therefore, experimental infections are established with S. aureus (strain Newbould 305). All mammary glands to be inoculated are free of pathogens and have individual quarter somatic cell counts (SCC) less than 200,000 cells/mL of milk. Inoculum is prepared from a four-hour culture grown in trypticase soy broth and diluted. Inoculations are made by infusion of 1.0 mL diluted culture containing 90 colony forming units of S. aureus (Newbould 305) into the teat cistern of a milked-out mammary quarter. Quarters which fail to establish an infection after six days from initial inoculation are reinfected.
Prepared in PBS is 50% glycerol and the solution is then sterile filtered (0.45μ). Poloxamer 407 NF is mixed overnight and prepared similarly. A 10% triacetin solution is prepared aseptically in sterile PBS. Appropriate amounts of lysostaphin is added so the final concentration is 1.67 mg/mL. All preparations are in a total volume of 60.0 mL and made the day of the infusion. All solutions are sterile filtered through a 0.45μ filter.
Duration of treatment: 3 consecutive PM milkings
Quarters are randomly assigned to one of six treatment groups. All quarters are infused with the appropriate vehicle (60.0 mL) with or without lysostaphin over three consecutive PM milkings. […]

[8] = tested on: S. aureus mastitis; assay: Therapy of S. aureus bovine mastitis (background); conditions: in vivo efficacy trials; in words
[9] = mouse, a20 cells, Relative Toxicity at 6 Hours

Row | Compound | viability at 6 h [1] [%] | viability at 6 h ([2]; lb/62287 b-cell lymphoma, LB, 6 h, vehicle 0.01%, read-out: Relative Toxicity at 6 Hours) [%] | viability at 6 h ([2]; lb/62287 b-cell lymphoma, LB, 6 h, vehicle 0.1%, read-out: Relative Toxicity at 6 Hours) [%] | viability at 6 h ([2]; lb/62287 b-cell lymphoma, LB, 6 h, vehicle 1.0%, read-out: Relative Toxicity at 6 Hours) [%] | viability at 72 h ([2]; lb/62287 b-cell lymphoma, LB, 72 h, vehicle 0.01%, read-out: Relative Toxicity at 72 Hours) [%] | viability at 72 h ([2]; lb/62287 b-cell lymphoma, LB, 72 h, vehicle 0.1%, read-out: Relative Toxicity at 72 Hours) [%] | viability at 72 h ([2]; lb/62287 b-cell lymphoma, LB, 72 h, vehicle 1.0%, read-out: Relative Toxicity at 72 Hours) [%] | viability at 6 h [2, 9] [%] | Relative Toxicity at 6 Hours [3] | Relative Toxicity at 72 Hours [3] | Tolerability / irritation upon infusion [4] | Character of potentiation ([5]; in words (footnotes, text)) | Vehicle Conc. w/Max. Potentiation (%) ([5]; with r-lysostaphin) | viability at 6 h ([2]; lb/62287 b-cell lymphoma, Relative Toxicity at 6 Hours) [%] | viability at 72 h ([2]; lb/62287 b-cell lymphoma, Relative Toxicity at 72 Hours) [%] | Relative Toxicity at 6 Hours [6] | Relative Toxicity at 72 Hours [6] | % Cures ([7]; 100 mg lysostaphin infusions on three consecutive days) [%] | Effect on potentiating the in vivo efficacy of lysostaphin ([7]; in words) | Clearing of the mammary gland of S. aureus [8]
1 | CCCCCCCC(=O)OCC(O)CO (centres unmarked) [IMWITOR ®, Glyceryl monocaprylate] | 75 to 90 | 50 to 74 | 25 to 49 | 25 to 49 | 50 to 74 | 0 to 24 | 0 to 24 | 50 to 74 | - | - |  |  |  |  |  |  |  |  |  | 
2 | CC(=O)OCC(COC(C)=O)OC(C)=O [Triacetin, glyceryl triacetate] |  |  |  |  |  |  |  | 75 to 90 | - | - | A small amount of irritation to some animals | Potentiates the bactericidal activity of rlysostaphin | 10.0 | 75 to 90 | 0 to 24 | - | - | 25 | Neither glycerol nor triacetin (both have a cure rate of 25%) has any significant effect | 
3 | lipopolysaccharide |  |  |  |  |  |  |  |  |  |  |  |  |  |  |  |  |  |  |  | able to clear the mammary gland temporarily of S. aureus
